Earlier results on one compound are cited in patent US20060251637A1, “Oil-in-water type emulsion containing coenzyme q10 and process for producting the same” (priority 2003, published 2006).

The structures appear in SMILES notation.

For this series the following is noted: at 20° C.; decreases with decreasing temperature.

As for `COC1=C(OC)C(=O)C(C/C=C(\C)CC/C=C(\C)CC/C=C(\C)CC/C=C(\C)CC/C=C(\C)CC/C=C(\C)CC/C=C(\C)CC/C=C(\C)CC/C=C(\C)CCC=C(C)C)=C(C)C1=O` [coenzyme Q10], the “Lipid solubility of coenzyme Q10” value is “approximately 1%”.
